From ChEMBL document CHEMBL1949551, “Design and synthesis of 8-substituted benzamido-phenylxanthine derivatives as MAO-B inhibitors” (Bioorg Med Chem Lett, 2012)

Experiments:
[1] = molecular target: T1, Amine oxidase [flavin-containing] B (Mus musculus, UniProt Q8BW75); assay: Inhibition of MAO-B in mouse cerebral homogenate using kynuramine as substrate after 30 mins by fluorimetry in the presence of MOA-A inhibitor clorgyline relative to control; settings: 0.5 h
T1 sequence (Q8BW75 whole entry): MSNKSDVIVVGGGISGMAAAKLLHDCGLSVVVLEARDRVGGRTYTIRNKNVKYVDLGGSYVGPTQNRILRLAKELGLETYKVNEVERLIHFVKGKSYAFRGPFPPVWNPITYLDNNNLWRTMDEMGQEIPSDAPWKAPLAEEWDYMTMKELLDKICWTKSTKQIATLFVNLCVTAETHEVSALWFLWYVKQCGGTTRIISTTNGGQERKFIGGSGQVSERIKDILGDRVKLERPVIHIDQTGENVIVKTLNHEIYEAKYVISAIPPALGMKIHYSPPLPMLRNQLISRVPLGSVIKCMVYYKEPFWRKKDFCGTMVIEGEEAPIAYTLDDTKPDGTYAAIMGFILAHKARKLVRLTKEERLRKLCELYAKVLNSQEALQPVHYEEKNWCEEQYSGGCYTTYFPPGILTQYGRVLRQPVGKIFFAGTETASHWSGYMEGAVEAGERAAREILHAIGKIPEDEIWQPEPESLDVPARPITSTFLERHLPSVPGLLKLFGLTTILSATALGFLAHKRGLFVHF

[2] = molecular target: T1, Amine oxidase [flavin-containing] B; assay: Inhibition of MAO-B in mouse cerebral homogenate using kynuramine as substrate after 30 mins by fluorimetry in the presence of MOA-A inhibitor clorgyline
[3] = molecular target: T1, Amine oxidase [flavin-containing] B; assay: Ratio of compound Ki to KW-6002 Ki for MAO-B in mouse cerebral homogenate

| SMILES | inhibition (INH) [1] | IC50 [2] | Ki [2] | Ratio Ki [3] |
| --- | --- | --- | --- | --- |
| COc1ccc(C(=O)Nc2ccc(-c3nc4c([nH]3)c(=O)n(C)c(=O)n4C)cc2)cc1 | 32.1% | 17.2 µM | 3.97 µM | – |
| COc1ccc(C(=O)Nc2cccc(-c3nc4c(c(=O)n(C)c(=O)n4C)n3C)c2)cc1 | 30.8% | 17.8 µM | 3.92 µM | – |
| Cc1ccc(C(=O)Nc2ccc(-c3nc4c(c(=O)n(C)c(=O)n4C)n3C)cc2)cc1 | 53.7% | 11.3 µM | 1.63 µM | – |
| Cn1c(=O)c2[nH]c(-c3cccc(NC(=O)c4ccccc4)c3)nc2n(C)c1=O | 27.9% | 18.9 µM | 4.21 µM | – |
| Cn1c(=O)c2c(nc(-c3ccc(NC(=O)c4ccccc4)cc3)n2C)n(C)c1=O | 67.4% | 8.9 µM | 0.26 µM | 42 |
| COc1ccc(C(=O)Nc2ccc(-c3nc4c(c(=O)n(C)c(=O)n4C)n3C)cc2)cc1 | 58.2% | 10.7 µM | 1.18 µM | – |
| Cn1c(=O)c2c(nc(-c3cccc(NC(=O)c4ccccc4)c3)n2C)n(C)c1=O | 40.5% | 14.5 µM | 2.95 µM | – |
| Cc1ccc(C(=O)Nc2cccc(-c3nc4c(c(=O)n(C)c(=O)n4C)n3C)c2)cc1 | 34.4% | 16.7 µM | 3.56 µM | – |

Other lines, results leading:

| inhibition (INH) [1] | IC50 [2] | Ki [2] | Ratio Ki [3] | SMILES |
| --- | --- | --- | --- | --- |
| 41.6% | 14 µM | 2.87 µM | – | Cc1ccc(C(=O)Nc2cccc(-c3nc4c([nH]3)c(=O)n(C)c(=O)n4C)c2)cc1 |
| 42.3% | 13.9 µM | 2.77 µM | – | Cc1ccc(C(=O)Nc2ccc(-c3nc4c([nH]3)c(=O)n(C)c(=O)n4C)cc2)cc1 |
| 35.1% | 16 µM | 3.49 µM | – | COc1ccc(C(=O)Nc2cccc(-c3nc4c([nH]3)c(=O)n(C)c(=O)n4C)c2)cc1 |
